Measurements from ChEMBL document CHEMBL5303304, “EUbOPEN Chemogenomics Library - IncuCyte” (2023).

Experiments:
Assay type in all cases: toxicity, cell-based
Fibroblast = assay: Incucyte cell viability with human fibroblast; settings: 10 µM, compound concentration 10 uM
U2OS = assay: Incucyte cell viability with U2OS; settings: human, 10 µM, compound concentration 10 uM
HEK-293T = assay: Incucyte cell viability with HEK293T; settings: human, 10 µM, compound concentration 10 uM
Note: unitless GR value; below 1 slowed growth and below 0 cell loss.

Structure (SMILES) | Growth Rate (Fibroblast; 6 h, replicate number 1) | Growth Rate (Fibroblast; 6 h, replicate number 2) | Growth Rate (Fibroblast; 12 h, replicate number 1) | Growth Rate (Fibroblast; 12 h, replicate number 2) | Growth Rate (Fibroblast; 18 h, replicate number 2) | Growth Rate (Fibroblast; 24 h, replicate number 2) | Growth Rate (U2OS; 0 h, replicate number 2) | Growth Rate (U2OS; 12 h, replicate number 1) | Growth Rate (U2OS; 18 h, replicate number 1) | Growth Rate (U2OS; 18 h, replicate number 2) | Growth Rate (U2OS; 24 h, replicate number 2) | Growth Rate (HEK-293T; 6 h, replicate number 1) | Growth Rate (HEK-293T; 6 h, replicate number 2) | Growth Rate (HEK-293T; 12 h, replicate number 1) | Growth Rate (HEK-293T; 12 h, replicate number 2) | Growth Rate (HEK-293T; 18 h, replicate number 1) | Growth Rate (HEK-293T; 18 h, replicate number 2) | Growth Rate (HEK-293T; 24 h, replicate number 1) | Growth Rate (HEK-293T; 24 h, replicate number 2) | Growth Rate (Fibroblast; 18 h, replicate number 1) | further results
O=C(Nc1ccc(-n2nc(C(F)(F)F)cc2C(F)(F)F)cc1)c1ccncc1F | 0.37 | -1 | -1 | 0.14 | 0.72 | 0.69 | -1 | 0.54 | 0.8 | 0.66 | 0.77 | -0.04 | -0.25 | 0.33 | 0.24 | 0.25 | 0.42 | 0.31 | 0.46 | – | Growth Rate (Fibroblast; 0 h, replicate number 1): -0.09; Growth Rate (Fibroblast; 24 h, replicate number 1): 0.81; Growth Rate (U2OS; 6 h, replicate number 1): -0.16; Growth Rate (U2OS; 6 h, replicate number 2): 0.41; Growth Rate (U2OS; 12 h, replicate number 2): 0.63; Growth Rate (U2OS; 24 h, replicate number 1): 0.69
COc1cc(-c2cc(-c3cccc(O)c3)cnc2N)cc(OC)c1OC | -0.21 | – | -1 | – | – | – | – | 0.89 | 0.73 | 0.85 | 0.86 | -0.66 | 0.38 | -0.58 | 0.41 | -0.43 | 0.33 | -0.24 | 0.42 | 0.59 | Growth Rate (Fibroblast; 0 h, replicate number 1): 0.1; Growth Rate (Fibroblast; 0 h, replicate number 2): -0.98; Growth Rate (U2OS; 12 h, replicate number 2): 0.96; Growth Rate (U2OS; 24 h, replicate number 1): 0.75
O=C(NCc1cccnc1OCC(F)(F)F)c1cncc(-c2ccc(Cl)cc2)c1 | – | -1 | – | 0.57 | 0.96 | – | -0.65 | 0.98 | – | – | – | 0.82 | – | – | – | 0.84 | – | 0.81 | – | -0.38 | Growth Rate (Fibroblast; 24 h, replicate number 1): 0.21; Growth Rate (U2OS; 6 h, replicate number 1): 0.44
C[C@@H](NC(=O)Cc1ccc(C2CC2)cc1)c1ccc(OCC(F)(F)F)cn1 | 0.85 | -0.99 | -1 | 0.67 | 0.93 | 0.89 | -0.85 | – | – | 0.79 | 0.87 | 0.39 | 0.17 | – | 0.64 | – | 0.63 | – | 0.68 | -0.27 | Growth Rate (Fibroblast; 0 h, replicate number 1): -0.4; Growth Rate (Fibroblast; 24 h, replicate number 1): 0.8; Growth Rate (U2OS; 0 h, replicate number 1): -0.06; Growth Rate (U2OS; 6 h, replicate number 2): 0.67; Growth Rate (U2OS; 12 h, replicate number 2): 0.53
CCc1cncnc1N1CCN(Cc2nc3cc(C(F)(F)F)ccc3[nH]2)CC1 | 1 | -0.99 | -1 | 0.78 | – | 0.93 | -0.83 | 0.51 | 0.53 | 0.57 | 0.84 | 0.41 | 0.28 | 0.53 | 0.34 | 0.65 | 0.48 | 0.88 | 0.58 | 0.44 | Growth Rate (Fibroblast; 0 h, replicate number 1): 0.88; Growth Rate (Fibroblast; 24 h, replicate number 1): 0.31; Growth Rate (U2OS; 6 h, replicate number 1): 0.31; Growth Rate (U2OS; 6 h, replicate number 2): 0.19; Growth Rate (U2OS; 12 h, replicate number 2): 0.49; Growth Rate (U2OS; 24 h, replicate number 1): 0.7
CCCC(=O)C1CCN(c2ncnc3c2CN(C(=O)c2ccc(-c4ccccc4)cc2)CC3)CC1 | 0.84 | -1 | – | 0.73 | 0.93 | 0.9 | – | 0.92 | 0.81 | – | – | 0.24 | 0.35 | – | 0.75 | – | 0.82 | – | 0.74 | 0.74 | Growth Rate (U2OS; 6 h, replicate number 1): 0.51; Growth Rate (U2OS; 24 h, replicate number 1): 0.83
Cc1nnsc1C(=O)Nc1ccc(-n2nc(C(F)(F)F)cc2C(F)(F)F)cc1 | 0.37 | -0.36 | -1 | 0.73 | 0.94 | 0.74 | -0.95 | 0.51 | 0.97 | 0.63 | 0.68 | 0.1 | -0.01 | 0.96 | 0.28 | 0.7 | 0.39 | 0.58 | 0.42 | – | Growth Rate (Fibroblast; 0 h, replicate number 2): 0.89; Growth Rate (U2OS; 6 h, replicate number 1): 0.52; Growth Rate (U2OS; 6 h, replicate number 2): -0.02; Growth Rate (U2OS; 12 h, replicate number 2): 0.42; Growth Rate (U2OS; 24 h, replicate number 1): 0.9
Nc1n[nH]c2nc(-c3ccc(NS(=O)(=O)c4cccc(Cl)c4Cl)cc3)cnc12 | -0.19 | -1 | -0.95 | – | – | – | – | – | – | – | – | 0.93 | 0.42 | 0.83 | 0.81 | – | 0.84 | – | 0.95 | – | Growth Rate (Fibroblast; 0 h, replicate number 1): 0.67; Growth Rate (Fibroblast; 0 h, replicate number 2): -0.78; Growth Rate (U2OS; 0 h, replicate number 1): 0.36
COCCNc1nc2ccc(C#CC3(O)CCCCC3)cc2n1-c1ccnc(N)n1 | -0.48 | -1 | -1 | -0.26 | 0.28 | 0.18 | – | 0.77 | 0.85 | 0.73 | 0.78 | 0.37 | – | – | 1 | – | 0.96 | – | 0.84 | 0.24 | Growth Rate (Fibroblast; 24 h, replicate number 1): 0.3; Growth Rate (U2OS; 6 h, replicate number 1): 0.44; Growth Rate (U2OS; 6 h, replicate number 2): 0.8; Growth Rate (U2OS; 12 h, replicate number 2): 0.69; Growth Rate (U2OS; 24 h, replicate number 1): 0.92
CCNCCNC(=O)c1c(C)[nH]c(/C=C2\C(=O)Nc3ccc(F)cc32)c1C | -0.96 | – | -1 | 0.44 | 0.18 | 0.1 | -0.6 | – | 0.78 | 0.77 | 0.7 | -0.62 | -0.16 | -0.52 | -0.09 | -0.32 | 0.09 | -0.09 | 0.21 | – | Growth Rate (U2OS; 24 h, replicate number 1): 0.69
COc1ccccc1-n1nc(C2CC(C)(C)OC(C)(C)C2)cc1-c1ccc(Cl)cc1 | – | -1 | – | 0.99 | 0.87 | – | -0.66 | 0.85 | 0.94 | 0.96 | 0.95 | -0.05 | -0.13 | 0.46 | 0.41 | 0.79 | 0.54 | 0.95 | 0.64 | -0.27 | Growth Rate (Fibroblast; 0 h, replicate number 1): -0.49; Growth Rate (U2OS; 6 h, replicate number 2): 0.41; Growth Rate (U2OS; 12 h, replicate number 2): 0.93; Growth Rate (U2OS; 24 h, replicate number 1): 0.94
C[C@@H](Cn1c(=O)[nH]/c(=N\c2ccc(Oc3ccccn3)cc2)n(Cc2ccc(Cl)cc2)c1=O)C(=O)O | -0.1 | -1 | – | 0.04 | 0.75 | 0.85 | -0.83 | 0.97 | 0.99 | – | – | 0.2 | 0.62 | – | – | 0.97 | – | – | – | – | Growth Rate (U2OS; 6 h, replicate number 2): 0.93
Cl.Cl.O=C1c2ccccc2C(Cc2ccncc2)(Cc2ccncc2)c2ccccc21 | – | – | -1 | – | – | 0.89 | -0.7 | – | – | 0.92 | 0.88 | 0.32 | 0.89 | 0.55 | 0.97 | 0.62 | 0.63 | 0.6 | 0.63 | 0.1 | Growth Rate (U2OS; 0 h, replicate number 1): -0.47; Growth Rate (U2OS; 6 h, replicate number 2): 0.24; Growth Rate (U2OS; 12 h, replicate number 2): 0.75
CC[C@]1(C)C[C@@H](OC(=O)CSc2nnc(N)[nH]2)[C@@]2(C)[C@H](C)CC[C@@]3(CCC(=O)[C@H]32)[C@@H](C)[C@@H]1O | -0.17 | -0.93 | – | 0.82 | 0.99 | 0.97 | – | 0.98 | 0.95 | – | – | 0.09 | 0.46 | 0.86 | 0.81 | 0.65 | 0.83 | 0.84 | 0.87 | 0.7 | Growth Rate (Fibroblast; 0 h, replicate number 2): -0.62
